The values that follow come from patent US6713436B1, “1-cycloalkylpyrazolyl-benzoyl derivatives” (BASF Aktiengesellschaft, priority 1999, dated 2004).

Series [1] deals with Brachiaria plantaginea. Put plainly: greenhouse post-emergence herbicidal test. The note with it: Brachiaria plantaginea (alexander grass), application rates of 0.5 or 0.25 kg/ha. It counts as in vivo. The source says: (§1) The seeds of the test plants were sown separately for each species. For the post-emergence treatment, the test plants were first grown to a height of 3 to 15 cm, depending on the plant habit, and only then treated with the active compounds which had been suspended or emulsified in water. The test plants were for this purpose either sown directly and grown in the same containers, or they were first grown separately as seedlings and transplanted into the test containers a few days prior to treatment. The application rate for the post-emergence treatment was 0.5 or 0.25 kg of a.s. (active substance)/ha. Depending on the species, the plants were kept at 10-25° C. or 20-35° C. The test period extended over 2 to 4 weeks. During this time, the plants were tended, and their response to the individual treatments was evaluated. The evaluation was carried out using a scale from 0 to 100. 100 means no emergence of the plants, or complete destruction of at least the aerial parts and 0 means no damage, or normal course of growth. The plants used in the greenhouse experiments were of the following species: [table]

The subject of series [2] is Chenopodium album. Put plainly: greenhouse post-emergence herbicidal test. The note with it: Chenopodium album (lamb's-quarters), application rates of 0.5 or 0.25 kg/ha. It counts as in vivo.
Excerpt: as §1

In series [3] the test system is Echinochloa crus-galli. Put plainly: greenhouse post-emergence herbicidal test. Type of series: in vivo. The note with it: Echinochloa crus-galli (barnyard grass), application rates of 0.5 or 0.25 kg/ha.
Excerpt: as §1

The subject of series [4] is Polygonum persicaria. Nature of the series: greenhouse post-emergence herbicidal test. The note with it: Polygonum persicaria (lady's-thumb), application rates of 0.5 or 0.25 kg/ha. It counts as in vivo.
Excerpt: as §1

Take `Cc1c(C(=O)c2cnn(C3CCCC3)c2O)ccc(S(C)(=O)=O)c1C1=NOCC1` [compound 4.6, 4-[2-Methyl-3-(4,5-dihydroisoxazol-3-yl)-4-methylsulfonylbenzoyl]-1-cyclopentyl-5-hydroxy-1H-pyrazole]: the melting point was 135 to 140 °C. The post-emergence action entry in series [1] is listed as “very good”. Further, the post-emergence action result in series [2] was “very good”. The post-emergence action result in series [3] was “very good”. The post-emergence action entry in series [4] was “very good”.

As a reminder, the melting point is the temperature, or range, at which the solid turns liquid.
